Values joined by “and” are separate entries in the source; they are usually repeats but may differ in a detail not shown here. Equal values may be shown once.
Legend:
Human P2Y12-R = target: T1, Human P2Y12-R (Homo sapiens, UniProt Q9H244); assay: β-arrestin 2 recruitment BRET1 assay (β-arrestin 2-RLuc / P2Y12-R-Venus) in HEK293T cells; type: cell-based; details: 10 μM, 5 min, result in words
T1 construct: expressed in transfected cells; host or cells: HEK293T/17
Source text: We assessed β-arrestin 2 recruitment to the receptor using BRET^1 assay. The assay measures the interaction between β-arrestin 2 fused to the Renilla reniformis luciferase (RLuc) energy donor and the receptor fused to fluorescent Venus energy acceptor (Fig. 3a). The recruitment of cytosolic β-arrestin 2 to the receptor at the plasma membrane in the presence of an agonist will promote a significant increase of the BRET signal compared to the basal state, reflecting the close proximity between the β-arrestin 2 energy donor and the receptor energy acceptor [22]. […]
G protein activation and β-arrestin 2 recruitment were performed as previously described. […] BRET signal between RLuc8 and GFP2 was measured after addition of the luciferase substrate coelenterazine 400a (5 μM). […] BRET signal was recorded after incubation with coelenterazine h (5 μM) for 8 min. For kinetics studies, BRET signal between RLuc and Venus was recorded at 20-s intervals at basal state for the 2 first minutes and then for 5 min after ligand injection. For saturation curves (BRET^1), the expression level of Venus- or RLuc-tagged protein was determined by direct measurement of total fluorescence and luminescence respectively. Total fluorescence was first measured with an excitation filter at 485 nm and an emission filter at 520 nm. […] BRET^2 and BRET^1 readings were collected using a modified Infinite F500 (Tecan Group Ltd). […]

[1] = test system: Gαq protein in HEK293T cells (pcDNA3.1); assay: Gαq protein activation BRET2 assay in control HEK293T cells without receptor (pcDNA3.1 / 0 μg); type: cell-based, Human; details: pcDNA3.1, ADP 10 μM, 1 min, individual experiments
Source text: As previously described, using a BRET^2 (bioluminescence resonance energy transfer)-based assay, we directly monitored the basal Gαq protein activation by measuring the interaction between Gαq and Gγ2 subunits of the Gαqβ1γ2 heterotrimer complex. Indeed, this assay is based on the non-radiative transfer between the Renilla reniformis luciferase (RLuc8) energy donor fused to the Gαq protein subunit and the fluorescent GFP2 energy acceptor fused to Gγ2 protein subunit (Fig. 1a). […] By contrast, ligand-independent constitutive receptor activation or agonist-induced receptor activation will promote Gαq/Gγ2 subunit dissociation, thereby leading to a decrease of the basal BRET signal (Fig. 1a). […] To preclude any P2Y1-R activation by a passive release of ADP by HEK293T cells, we performed similar experiments in the presence of high concentration of apyrase (0.2U/mL) to degrade any trace of ADP in the medium (Additional File 2: Fig. S2a). Under these conditions, P2Y1-R expression still induces a marked and significant decrease of the basal BRET signal compared to control cells (pcDNA3.1), thereby supporting a P2Y1-R-dependent constitutive activation of Gαq protein. […] Of note, because P2Y1-R and AT1-R were respectively Myc- and HA-tagged and were thus detected using different primary antibodies, their expression at the cell surface cannot be compared between each other’s.
G protein activation and β-arrestin 2 recruitment were performed as previously described. […] BRET signal between RLuc8 and GFP2 was measured after addition of the luciferase substrate coelenterazine 400a (5 μM). […] BRET signal was recorded after incubation with coelenterazine h (5 μM) for 8 min. For kinetics studies, BRET signal between RLuc and Venus was recorded at 20-s intervals at basal state for the 2 first minutes and then for 5 min after ligand injection. For saturation curves (BRET^1), the expression level of Venus- or RLuc-tagged protein was determined by direct measurement of total fluorescence and luminescence respectively. Total fluorescence was first measured with an excitation filter at 485 nm and an emission filter at 520 nm. Then, the same sample was incubated for 8 minutes with 5 μM coelenterazine h and the total luminescence was measured. BRET^2 and BRET^1 readings were collected using a modified Infinite F500 (Tecan Group Ltd). The BRET^2 signal was calculated by the ratio of emission of GFP2 (510–540 nm) to RLuc8 (370–450 nm) and the BRET^1 signal by the ratio of emission of Venus (520–570 nm) to RLuc (370–480 nm). Sometimes, results are expressed as the Net BRET computed by deducting the BRET background signal (obtained in the presence of the energy donor alone) from the BRET signal (acquired from cells expressing both the energy donor and acceptor).

P2Y1-R = test system: P2Y1-R; parameters: method as in PMID 29724785; details: Alzheimer's disease mouse model, result in words; cited from earlier work
HEK293T cells (pcDNA3.1) = assay: IP1 accumulation assay (HTRF) in control HEK293T cells (pcDNA3.1); type: cell-based, Human; details: pcDNA3.1, MRS2179 10 μM, 2 h
Source text: Since Gαq protein activation is known to induce PLC activation leading to IP3 and subsequent cytosolic calcium release, we analyzed the constitutive Gαq-dependent P2Y1-R signaling by quantifying intracellular inositol monophosphate (IP1) using a monoclonal antibody-based competitive ELISA. IP1 is a downstream metabolite of IP3 that accumulates in cells following Gαq protein-coupled receptor activation, making it an ideal readout for Gαq protein-dependent signaling pathways.
Quantification of intracellular IP1 was performed using the HTRF (Homogeneous Time Resolved Fluorescence) IP1 competitive immunoassay (IP-One Tb kit. Cisbio. France) according to the manufacturer’s instructions. Briefly, 20,000 HEK293T/17 cells or 3.10^6 platelets were distributed in a 384-well white microplate (Greiner) and incubated with the indicated molecules for 30 min or 2 h at 37 °C in the presence of 50 mM of LiCl to prevent IP1 degradation. After addition of d2-labeled IP1 (acceptor) and anti-IP1-Cryptate (donor) for 1 h, the specific FRET signals were calculated by the fluorescence ratio of the acceptor and donor emission signal (665/620 nm) collected using a modified Infinite F500 (Tecan Group Ltd). Conversion of the HTRF ratio of each sample into IP1 concentrations was performed on the basis of a standard curve to determine the linear dynamic range of the assay.

T1 sequence (Q9H244 whole entry): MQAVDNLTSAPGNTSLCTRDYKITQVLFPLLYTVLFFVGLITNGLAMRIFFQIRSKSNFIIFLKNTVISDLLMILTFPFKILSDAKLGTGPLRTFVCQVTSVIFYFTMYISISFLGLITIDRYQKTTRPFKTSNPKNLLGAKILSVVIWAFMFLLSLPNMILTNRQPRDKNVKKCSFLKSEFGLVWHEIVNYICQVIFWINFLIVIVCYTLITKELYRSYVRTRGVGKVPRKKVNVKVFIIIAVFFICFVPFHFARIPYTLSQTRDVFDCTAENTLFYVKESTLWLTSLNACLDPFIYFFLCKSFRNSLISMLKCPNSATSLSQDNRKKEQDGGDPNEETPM

SMILES: Nc1ncnc2c1ncn2[C@@H]1O[C@H](COP(=O)(O)OP(=O)(O)O)[C@@H](O)[C@H]1O [ADP, adenosine diphosphate]
- Effect on β-arrestin 2 recruitment (Human P2Y12-R): did not trigger β-arrestin 2 recruitment
- ADP-modulated BRET [1]: -0.02779 and 0.00353 and 0.02201 and 0.01275 and 0.006152 and -0.007154

SMILES: CNc1ncnc2c1ncn2[C@H]1C[C@H](OP(=O)(O)O)[C@@H](COP(=O)(O)O)O1 [MRS2179]
- Effect on network homeostasis, spatial learning and memory (P2Y1-R): restored network homeostasis and protected from the decline of spatial learning and memory
- IP1 concentration (HEK293T cells (pcDNA3.1)): 88.9223 nM and 110.299 nM and 105.967 nM and 93.0408 nM and 138.708 nM

Source: PMC9890698 (BMC Biology, 2023)
